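96-well plates; 48 h exposure; 5 concentrations. Endpoints by linear interpolation between flanking doses. Not reached: highest tested concentration assigned. Abbreviation: GI50, concentration required for 50% inhibition of growth. TGI is the concentration that stops growth completely.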
Columns and labels:
Experiment in all cases: NCI anticancer screen, dose series, 48 h
LOX IMVI melanoma = tested on: LOX IMVI melanoma
SW-620 colon = tested on: SW-620 colon
SNB-19 CNS = tested on: SNB-19 CNS
SNB-75 CNS = tested on: SNB-75 CNS
MDA-MB-468 breast = tested on: MDA-MB-468 breast
HS 578T breast = tested on: HS 578T breast
RXF 393 renal = tested on: RXF 393 renal
HT29 colon = tested on: HT29 colon
BT-549 breast = tested on: BT-549 breast
CCRF-CEM leukemia = tested on: CCRF-CEM leukemia
OVCAR-3 ovarian = tested on: OVCAR-3 ovarian
SF-268 CNS = tested on: SF-268 CNS
A549 NSCLC = tested on: A549 NSCLC
NCI-H460 lung = tested on: NCI-H460 lung
HCT-15 colon = tested on: HCT-15 colon
SF-539 CNS = tested on: SF-539 CNS
MOLT-4 leukemia = tested on: MOLT-4 leukemia
SR leukemia = tested on: SR leukemia
KM12 colon = tested on: KM12 colon
OVCAR-4 ovarian = tested on: OVCAR-4 ovarian
UACC-62 melanoma = tested on: UACC-62 melanoma
UO-31 renal = tested on: UO-31 renal
MCF7 breast = tested on: MCF7 breast
786-0 renal = tested on: 786-0 renal
A498 renal = tested on: A498 renal
K-562 leukemia = tested on: K-562 leukemia
SK-MEL-28 melanoma = tested on: SK-MEL-28 melanoma
SF-295 CNS = tested on: SF-295 CNS
U251 CNS = tested on: U251 CNS
TK-10 renal = tested on: TK-10 renal
HL-60(TB) leukemia = tested on: HL-60(TB) leukemia
HCC-2998 colon = tested on: HCC-2998 colon
DU-145 prostate = tested on: DU-145 prostate
NCI-H522 lung = tested on: NCI-H522 lung
COLO 205 colon = tested on: COLO 205 colon
HOP-92 NSCLC = tested on: HOP-92 NSCLC
SN12C renal = tested on: SN12C renal
MALME-3M melanoma = tested on: MALME-3M melanoma
OVCAR-8 ovarian = tested on: OVCAR-8 ovarian
OVCAR-5 ovarian = tested on: OVCAR-5 ovarian
PC-3 prostate = tested on: PC-3 prostate
NCI-H226 lung = tested on: NCI-H226 lung
HCT-116 colon = tested on: HCT-116 colon
HOP-62 NSCLC = tested on: HOP-62 NSCLC
RPMI-8226 leukemia = tested on: RPMI-8226 leukemia
MDA-MB-231 breast = tested on: MDA-MB-231 breast
SK-OV-3 ovarian = tested on: SK-OV-3 ovarian
M14 melanoma = tested on: M14 melanoma
CAKI-1 renal = tested on: CAKI-1 renal
SK-MEL-2 melanoma = tested on: SK-MEL-2 melanoma
ACHN renal = tested on: ACHN renal
T-47D breast = tested on: T-47D breast
MDA-MB-435 = tested on: MDA-MB-435
UACC-257 melanoma = tested on: UACC-257 melanoma
IGROV1 ovarian = tested on: IGROV1 ovarian
EKVX NSCLC = tested on: EKVX NSCLC
SK-MEL-5 melanoma = tested on: SK-MEL-5 melanoma
NCI-H23 lung = tested on: NCI-H23 lung

O=C(c1ccc(Cl)cc1)C1[C@H](c2ccccc2Br)[C@@H](c2ccccc2)NC12C(=O)Nc1ccc(Br)cc12 (stereo partly specified) showed a GI50 (LOX IMVI melanoma) of 4.95 µM, a TGI (LOX IMVI melanoma) of 13.5 µM and a GI50 (SW-620 colon) of 9.5 µM. The TGI (SW-620 colon) was > 49 µM, the GI50 (SNB-19 CNS) was 23.2 µM and the TGI (SNB-19 CNS) was > 49 µM. The GI50 (SNB-75 CNS) was 1.31 µM, the TGI (SNB-75 CNS) was > 49 µM and the GI50 (MDA-MB-468 breast) was 1.55 µM. The TGI (MDA-MB-468 breast) was 14.2 µM, the GI50 (HS 578T breast) was 7.13 µM and the TGI (HS 578T breast) was > 49 µM. For the same compound, the GI50 (RXF 393 renal) was 2.2 µM, the TGI (RXF 393 renal) was 23.3 µM and the GI50 (HT29 colon) was 6.21 µM. For the same compound, the TGI (HT29 colon) was 17.2 µM, the GI50 (BT-549 breast) was 5.97 µM and the TGI (BT-549 breast) was > 49 µM. It also gave a GI50 (CCRF-CEM leukemia) of 5.97 µM, a TGI (CCRF-CEM leukemia) of 26.5 µM and a GI50 (OVCAR-3 ovarian) of 5.07 µM. For the same compound, the TGI (OVCAR-3 ovarian) was 29.5 µM, the GI50 (SF-268 CNS) was 3.97 µM and the TGI (SF-268 CNS) was > 49 µM. For the same compound, the GI50 (A549 NSCLC) was 4.84 µM, the TGI (A549 NSCLC) was > 49 µM and the GI50 (NCI-H460 lung) was 5.94 µM. For the same compound, the TGI (NCI-H460 lung) was 15 µM, the GI50 (HCT-15 colon) was 7.65 µM and the TGI (HCT-15 colon) was > 49 µM. For the same compound, the GI50 (SF-539 CNS) was > 49 µM, the TGI (SF-539 CNS) was > 49 µM and the GI50 (MOLT-4 leukemia) was 2.4 µM. For the same compound, the TGI (MOLT-4 leukemia) was 25.2 µM, the GI50 (SR leukemia) was 3.01 µM and the TGI (SR leukemia) was 18.7 µM. For the same compound, the GI50 (KM12 colon) was 7.46 µM, the TGI (KM12 colon) was 23.4 µM and the GI50 (OVCAR-4 ovarian) was 10.1 µM. The TGI (OVCAR-4 ovarian) was > 49 µM, the GI50 (UACC-62 melanoma) was 6.59 µM and the TGI (UACC-62 melanoma) was > 49 µM. For the same compound, the GI50 (UO-31 renal) was 4.83 µM, the TGI (UO-31 renal) was > 49 µM and the GI50 (MCF7 breast) was 2.64 µM. The TGI (MCF7 breast) was > 49 µM, the GI50 (786-0 renal) was 18.4 µM and the TGI (786-0 renal) was > 49 µM. The GI50 (A498 renal) was > 49 µM, the TGI (A498 renal) was > 49 µM and the GI50 (K-562 leukemia) was 6.65 µM. For the same compound, the TGI (K-562 leukemia) was > 49 µM, the GI50 (SK-MEL-28 melanoma) was 20.3 µM and the TGI (SK-MEL-28 melanoma) was > 49 µM. For the same compound, the GI50 (SF-295 CNS) was 12.2 µM, the TGI (SF-295 CNS) was > 49 µM and the GI50 (U251 CNS) was 8.25 µM. For the same compound, the TGI (U251 CNS) was 31.6 µM, the GI50 (TK-10 renal) was 20.4 µM and the TGI (TK-10 renal) was > 49 µM. For the same compound, the GI50 (HL-60(TB) leukemia) was 8.67 µM, the TGI (HL-60(TB) leukemia) was 32.5 µM and the GI50 (HCC-2998 colon) was 8.14 µM. The TGI (HCC-2998 colon) was 33.8 µM, the GI50 (DU-145 prostate) was 9.36 µM and the TGI (DU-145 prostate) was > 49 µM. The GI50 (NCI-H522 lung) was 2.44 µM, the TGI (NCI-H522 lung) was 26.2 µM and the GI50 (COLO 205 colon) was 7.1 µM. The TGI (COLO 205 colon) was 15.5 µM, the GI50 (HOP-92 NSCLC) was 3.28 µM and the TGI (HOP-92 NSCLC) was > 49 µM. For the same compound, the GI50 (SN12C renal) was 5.33 µM, the TGI (SN12C renal) was 14 µM and the GI50 (MALME-3M melanoma) was 13.1 µM. For the same compound, the TGI (MALME-3M melanoma) was > 49 µM, the GI50 (OVCAR-8 ovarian) was 11 µM and the TGI (OVCAR-8 ovarian) was > 49 µM. The GI50 (OVCAR-5 ovarian) was 10.2 µM, the TGI (OVCAR-5 ovarian) was > 49 µM and the GI50 (PC-3 prostate) was 2.53 µM. The TGI (PC-3 prostate) was 33.4 µM, the GI50 (NCI-H226 lung) was 5.52 µM and the TGI (NCI-H226 lung) was > 49 µM. For the same compound, the GI50 (HCT-116 colon) was 2.34 µM, the TGI (HCT-116 colon) was 11.7 µM and the GI50 (HOP-62 NSCLC) was 15.6 µM. For the same compound, the TGI (HOP-62 NSCLC) was > 49 µM, the GI50 (RPMI-8226 leukemia) was 8.15 µM and the TGI (RPMI-8226 leukemia) was > 49 µM. It also gave a GI50 (MDA-MB-231 breast) of 5.01 µM, a TGI (MDA-MB-231 breast) of 23 µM and a GI50 (SK-OV-3 ovarian) of 13.6 µM. For the same compound, the TGI (SK-OV-3 ovarian) was > 49 µM, the GI50 (M14 melanoma) was 7.81 µM and the TGI (M14 melanoma) was 34.9 µM. For the same compound, the GI50 (CAKI-1 renal) was 1.88 µM, the TGI (CAKI-1 renal) was > 49 µM and the GI50 (SK-MEL-2 melanoma) was 7.37 µM. The TGI (SK-MEL-2 melanoma) was > 49 µM, the GI50 (ACHN renal) was 10 µM and the TGI (ACHN renal) was > 49 µM. For the same compound, the GI50 (T-47D breast) was 3.88 µM, the TGI (T-47D breast) was > 49 µM and the GI50 (MDA-MB-435) was 7.74 µM. For the same compound, the TGI (MDA-MB-435) was 22.3 µM, the GI50 (UACC-257 melanoma) was 10 µM and the TGI (UACC-257 melanoma) was > 49 µM. The GI50 (IGROV1 ovarian) was 6.71 µM, the TGI (IGROV1 ovarian) was > 49 µM and the GI50 (EKVX NSCLC) was 13.3 µM. The TGI (EKVX NSCLC) was > 49 µM, the GI50 (SK-MEL-5 melanoma) was 10.6 µM and the TGI (SK-MEL-5 melanoma) was 38 µM. For the same compound, the GI50 (NCI-H23 lung) was 7.91 µM and the TGI (NCI-H23 lung) was > 49 µM.
